Laboratory results as given in patent publication US8778985B2, “Inhibiting amyloid-beta peptide/rage interaction at the blood-brain barrier” (The University of Rochester, priority 2006, dated 2014).

Legend:
[1] = system: APPsw+/− mice; assay: Human Aβ40 and Aβ42 levels in hippocampus and cortex by ELISA, chronic treatment of APPsw+/− mice; assay type: in vivo; conditions: 1 mg/kg per day i.p. for two months
Experimental: A-B, Aβ40 and Aβ42 levels in hippocampus (A) cortex (B) of APPsw^+/− mice treated with vehicle (filled square) or FPS2 (filled triangle). FPS2 (1 mg/kg per day) was administered intraperitoneally to mice for two months beginning at the age of 8 months. Values are means±s.e.m, n=5-6 per group.
In the chronic-treated mice, Aβ40 and Aβ42 levels in the hippocampus were reduced by about 85% and 90%, respectively, in the FPS2-treated mice compared to vehicle (FIG. 6A). Similarly, Aβ40 and Aβ42 levels in the cortex were reduced by about 70% and 80%, respectively (FIG. 6B).
Compounds were synthesized in parallel using semiautomated chemical reactions. Five commercially-available aromatic aldehydes were condensed in reductive amination reactions with five hydrophobic amines to form 25 secondary amines. Parallel acylation of these 25 secondary amines with five aromatic acyl chlorides provided the final 125-compound library of tertiary amides. The identity of compounds was verified by mass spectrometry (FIG. 9). Purity was assessed by reverse-phase gradient HPLC. Library members isolated with purity <95% were subjected to preparative HPLC purification prior to assay. • Animals. APPsw^+/− (Tg2576) mice were from Taconic Farms (Germantown, N.Y.). Mice were housed under standard conditions (12 hour light/dark cycle starting at 07:00 AM; 21±2° C.; 55±10% humidity) in solid-bottom cages on woodchip bedding. Mice were anesthetized by intraperitoneal injection with urethane (750 mg/kg) and α-chloralose (50 mg/kg). All procedures on mice were performed according to the NIH guidelines, which were approved by the University of Rochester's Committee on Animal Resources. • FPS2 chronic treatment of APPsw^+/− mice. APPsw^+/− mice (n=5-6 per group) were treated intraperitoneally with FPS2 (1 mg/kg per day) or saline for two months beginning at the age of 8 months. After two months of treatment, (i) the cerebral blood flow response to brain activation (whisker stimulation) was measured and (ii) behavioral tests including operant learning, novel object location (NOL), and novel object recognition (NOR) were performed. After these functional tests, the mice were sacrificed and their brains analyzed for Aβ40, Aβ42, and amyloid levels. • CBF response to brain activation. The CBF response to vibrissal stimulation in anesthetized APPsw^+/− mice was measured by using laser-doppler flowmetry (Transonic Systems, BLF 21 D). The tip of the laser-doppler probe was stereotaxically placed 0.5 mm above the dura of the cranial window. The right vibrissae were cut to about 5 mm and stimulated by gentle stroking at 3-4 Hz, for 1 min with a cotton-tip applicator. […] The time exploring the novel and familiar objects was scored by hand to provide discrimination. • Human Aβ40 and Aβ42. […]

[2] = system: RAGE-transfected CHO cells; assay: Thiobarbituric acid reactive substance (TBARS) generation (Aβ/RAGE-induced oxidant stress) in RAGE-transfected CHO cells; assay type: cell-based; conditions: 1 μM Aβ40; FPS2 at 50 nM or 500 nM

## CC(CC(=O)NCCCN(C(=O)c1cc([N+](=O)[O-])cc([N+](=O)[O-])c1)c1ccccc1)CC(C)(C)C (centres unmarked) [FPS2, 3,5-dinitro-N-phenyl-N-[3-[(3,5,5-trimethyl-1-oxohexyl)amino]propyl]-(9Cl)-benzamide]
[1]
  reduction of Aβ40 level in the cortex compared to vehicle: about 70%
  reduction of Aβ40 level in the hippocampus compared to vehicle: about 85%
  reduction of Aβ42 level in the cortex compared to vehicle: ~80%
  reduction of Aβ42 level in the hippocampus compared to vehicle: ~90%
[2]
  TBARS generation: inhibited
